Each structure is given as a SMILES string.

Test [1] relates to paternal mitochondrial elimination (PME) in C. elegans wild-type (N2) cross-fertilized embryos. As to the kind of experiment: PME fluorescent microscopy assay (MTR-stained paternal mitochondrial clusters), N2 males x N2 hermaphrodites. The format is in vivo. To be noted: for effect on PME in the screen: compound 100 μM, 64-cell stage embryos (FIG. 1a). The procedure:
FIG. 1. […] The numbers of MTR-stained paternal mitochondrial clusters in 64-cell cross-fertilized embryos from mating of MTR-stained N2 males with N2 hermaphrodites in the presence of the indicated compounds (100 μM) were scored. n≥15 embryos for each compound. b, d-g, Quantification of MTR-stained paternal mitochondrial clusters in 64-cell stage embryos (b, d-f) or in embryos at the indicated stage (g) from the cross between MTR-stained N2 males and N2 hermaphrodites, in the presence of 0.25% ethanol (Mock) or 50 μM of the indicated compound. In each experiment, n>40 embryos (b,d,e), n=20 embryos (f), and n≥10 embryos (g) were scored, respectively. […] Data are mean±s.e.m. **P<0.01, ***P<0.001; n.s., not significant, two-sided, unpaired t-test.
FIG. 7. Effects of different dosages of resveratrol isomers on PME. a, b, The effects of different dosages of cis-resveratrol (a) and trans-resveratrol (b) on PME. The numbers of MTR-stained paternal mitochondrial clusters in 64-cell embryos (a) or 16-cell embryos (b) from mating of MTR-stained N2 males with N2 hermaphrodites in the presence of the indicated concentrations of resveratrol isomers were scored. […] N2 hermaphrodites and MTR-stained uaDf5/+ males were mated as indicated in the presence of 0.25% ethanol (Mock, d), 50 μM trans-resveratrol (e), or 50 μM cis-resveratrol (f). Males also carried smIs42, an integrated Psur-5sur-5::gfp transgene, which directs GFP expression in all somatic cells in most developmental stages, and was used to track cross progeny. A single cross-fertilized embryo or larva (MTR- or GFP-positive) at the indicated stage was analyzed by PCR. uaDf5/+ and N2 hermaphrodites were controls.
FIG. 12. […] Quantification of MTR-stained paternal mitochondrial clusters at the indicated embryonic stages from the cross between MTR-stained N2 males and N2 hermaphrodites, in the presence of 0.25% ethanol (Mock) or 50 μM of the indicated compound. In each experiment, n≥10 embryos embryos. Data are mean±s.e.m. **P<0.01, ***P<0.001; n.s., not significant, two-sided, unpaired t-test.
Following fertilization, paternal mitochondria are rapidly depolarized and damaged in fertilized eggs, which could generate and release reactive oxygen species (ROS) that affect PME and embryo development. We thus screened twelve small molecules derived from natural products that have been used as antioxidants for the potential activity in modulating PME (FIG. 6a), using a fluorescent microscopy assay. In this assay, C. elegans wild-type (N2) males prestained with Mitotracker Red (MTR), a mitochondrion-specific fluorescent dye, were mated with unstained N2 hermaphrodites in the presence of the compound of interest ([…]) and the cross-fertilized embryos were examined for the presence of MTR-stained paternal mitochondria or mitochondrial clusters.

Test [2] deals with PME defect of lgg-1(bp523) embryos (autophagy pathway). The experiment in a line: PME microscopy assay in lgg-1(bp523) crosses. Format: in vivo, C. elegans. To be noted: FIG. 6c.
Source text: (§1) The numbers of MTR-stained paternal mitochondrial clusters were scored as in FIG. 1a. cps-6(tm3222) and lgg-1(bp523) alleles were used in the assays. Data are mean±s.e.m. n=20 embryos (b) and 15 embryos (c) in each experiment. **P<0.01; ***P<0.001; n.s., not significant, two-sided, unpaired t-test.
(§2) To investigate how these six compounds might affect PME, the present inventors performed chemical genetic analysis to analyze the PME pathways that might be affected by the compounds. The present inventors first examined whether they might affect the paternal PME pathway mediated by the mitochondrial endonuclease CPS-6, whose activity is inhibited by oxidation and protected by reducing agents.
In test [3] the test system is PME defect of cps-6(tm3222) embryos. As to the kind of experiment: PME microscopy assay in cps-6(tm3222) crosses. Format: in vivo, C. elegans. To be noted: 64-cell embryos, scored as in FIG. 1a (FIG. 6b); DMSO control average of 17 clusters.
Source text: as §1, §2
For test [4], the system named is EndoG. To be noted: stated in discussion, no test described; cited from earlier work.
Test [5] addresses T1, CPS-6 (Caenorhabditis elegans, UniProt Q95NM6).
T1 construct: Recombinant CPS-6 protein was incubated with the supercoiled plasmid DNA substrate
T1 sequence (Q95NM6 1-308): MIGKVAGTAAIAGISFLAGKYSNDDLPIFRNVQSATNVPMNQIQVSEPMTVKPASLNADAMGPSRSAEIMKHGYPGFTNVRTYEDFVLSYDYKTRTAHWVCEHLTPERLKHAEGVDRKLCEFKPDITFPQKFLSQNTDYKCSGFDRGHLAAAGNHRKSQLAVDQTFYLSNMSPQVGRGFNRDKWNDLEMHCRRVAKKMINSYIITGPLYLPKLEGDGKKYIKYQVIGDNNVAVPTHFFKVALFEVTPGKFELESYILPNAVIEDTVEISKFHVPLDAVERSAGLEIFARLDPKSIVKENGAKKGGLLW
The experiment in a line: plasmid DNA cleavage assay. Format: biochemical, C. elegans. To be noted: 20 μM. The procedure:
FIG. 3. Resveratrol isomers target CPS-6 to affect PME. a, b, Both cis-resveratrol and trans-resveratrol act paternally to affect PME. The numbers of MTR-stained paternal mitochondrial clusters in embryos at 64-cell (a) or 16-cell (b) stage from the indicated crosses were scored. N2 males or hermaphrodites were pretreated with 0.25% ethanol (Mock), 50 μM cis-resveratrol (a), or 50 μM trans-resveratrol (b) as indicated before mating. c-g, Quantification of MTR-stained paternal mitochondrial clusters in 64-cell embryos from the indicated crosses treated with 0.25% ethanol (Mock), 50 μM cis-resveratrol, and 50 μM trans-resveratrol, respectively. Alleles used are lgg-1(bp523), cps-6(tm3222) and rad-23(tm2595). Data are mean s.e.m; n≥15 embryos (a) and n≥20 embryos (b, c-g) were scored in each experiment. ***P<0.001; n.s., not significant, two-sided, unpaired t-test. h, Resveratrol isomers enhance or inhibit the nuclease activity of CPS-6 in a plasmid DNA cleavage assay. 10 ng of CPS-6 were incubated with 0.25% ethanol (Mock), 20 μM cis-resveratrol, or 20 μM trans-resveratrol in dark at 4° C. for 1.5 hours, before 1 μg of the pPD49.78 plasmid DNA were added to the reactions. After further incubation at 30° C. for 1 hour, the reactions were resolved on a 1% agarose gel. Three different forms of plasmid DNA are indicated.
FIG. 11. Stabilized trans-resveratrol enhances the nuclease activity of CPS-6 in a plasmid DNA cleavage assay and is resistant to UV irradiation. 10 ng of CPS-6 were incubated with 0.25% ethanol (Mock), 20 μM locked trans-resveratrol with or without UV irradiation, 20 μM trans-resveratrol with or without UV irradiation, and 20 μM cis-resveratrol with or without UV irradiation, respectively, in dark at 4° C. for 1.5 hours, before 1 μg of the pPD49.78 plasmid DNA were added to the reactions. After further incubation at 30° C. for 1 hour, the reactions were resolved on a 1% agarose gel. Three different forms of plasmid DNA are indicated. Resveratrol isomers or derivative were subjected to UV irradiation for 3 hours.
Because resveratrol is an antioxidant and the endonuclease activity of CPS-6 is regulated by redox conditions both in vitro and in vivo, we investigated the possibility that resveratrol isomers could directly affect the nuclease activity of CPS-6 using a plasmid DNA cleavage assay. Recombinant CPS-6 protein was incubated with the supercoiled plasmid DNA substrate in the presence or absence of 20 μM trans-resveratrol or cis-resveratrol and the reactions were resolved by an agarose gel. […] Since the nuclease activity of CPS-6 is required for PME, these in vitro results are consistent with the in vivo observations that trans-resveratrol enhances and cis-resveratrol inhibits PME.

Test [6] deals with α-synuclein-induced dopaminergic neuronal death in baIn11 animals. The experiment in a line: α-synuclein-based Parkinson's Disease model, DA neuronal death. Format: in vivo, C. elegans. To be noted: 50 μM, adult day 2 (FIG. 8c). An excerpt: FIG. 8. […] In each experiment, 300 animals were scored to determine the percentage of animals losing at least one dopaminergic neuron in the head. Data are mean±s.e.m. *P<0.05; ***P<0.001, two-sided, unpaired t-test.
FIG. 13. […] In each experiment, 300 animals were scored to determine the percentage of animals losing at least one of the six dopaminergic neurons in the head. Data are mean±s.e.m. ****P<0.001, two-sided, unpaired t-test.
In addition to PME and apoptosis, EndoG was previously shown to play an important role in mediating dopaminergic (DA) neuronal death induced by expression of human α-synuclein, which is widely considered to be a major proponent of Parkinson's disease. However, the mechanism by which EndoG mediates α-synuclein-induced neurodegeneration is unclear. In a C. elegans α-synuclein-based Parkinson's Disease model, co-expression of GFP and human α-synuclein in C. elegans dopaminergic neurons under the control of the promoter of the dat-1 gene, which encodes a dopamine transporter, from an integrated transgene baIn11 (Pdat-1::gfp/Pdat-1::α-synuclein) caused DA neuronal death in 30% of adult baIn11 animals (FIG. 8a). The cps-6(tm3222) mutation blocked DA neuronal death in adult baIn11 animals (FIG. 8a), confirming that CPS-6 is important for α-synuclein-induced DA neuronal death.

`Oc1cc(O)c2c(c1)O[C@H](c1ccc(O)c(O)c1)[C@@H](O)C2` [catechinic acid, reference compound]: in test [1], the “effect on PME in the screen” value was “did not inhibit PME”.

For the molecule `O=c1cc(-c2ccc(O)cc2)oc2cc(O)cc(O)c12` [apigenin], the “enhancement of the PME defect in lgg-1 deficient embryos, screen compounds” value (“enhancement of the PME defect” below) in test [2] is recorded as “enhanced the PME defect”. Further, the “effect on PME defect of cps-6(tm3222) embryos, screen compounds” value (“effect on PME defect” for short) in test [3] is given as “significantly increased the number of paternal mitochondrial clusters”.

With `Oc1ccc(/C=C/c2cc(O)cc(O)c2)cc1` [resveratrol, 3,5,4′-trihydroxy-trans-stilbene], in test [2], the “enhancement of the PME defect” value is on record as “enhanced the PME defect”. Moreover, in test [3], the “effect on PME defect” value was “did not affect the PME defect”. The “affinity of resveratrol to EndoG” value in test [4] was “nanomolar affinity”.

Turning to `Nc1nc2ncc(CNc3ccc(C(=O)N[C@@H](CCC(=O)O)C(=O)O)cc3)nc2c(=O)[nH]1` [folic acid, reference compound], the “effect on PME in the screen” value in test [1] is on record as “did not inhibit PME”.

As to `N[C@@H](CCC(=O)N[C@@H](CS)C(=O)NCC(=O)O)C(=O)O` [glutathione, reference compound], the “effect on PME in the screen” value in test [1] is “did not inhibit PME”.

For the molecule `CC1=C(/C=C/C(C)=C/C=C/C(C)=C/C=C/C=C(C)/C=C/C=C(C)/C=C/C2=C(C)C(=O)[C@@H](O)CC2(C)C)C(C)(C)C[C@H](O)C1=O` [astaxanthin, reference compound], the “effect on PME in the screen” value in test [1] is “did not inhibit PME”.

Regarding `Oc1ccc(/N=C/c2cc(O)cc(O)c2)cc1`, the “dynamics of PME at different embryonic stages” value in test [1] (50 μM vs 0.25% ethanol mock (FIG. 1g, FIG. 12)) is on record as “identical activity in promoting PME”. Also, the “effect on CPS-6 nuclease activity” value in test [5] (10 ng CPS-6, pPD49.78 plasmid DNA) is recorded as “similarly enhance the endonuclease activity of CPS-6 like trans-resveratrol”. In addition, the “effect on CPS-6 nuclease activity after UV irradiation of the compound” value in test [5] (compound UV irradiated for 3 hours (FIG. 11)) is recorded as “did not alter the activity”. For the same molecule, the “adult baIn11 animals with neurodegeneration (DA neuronal loss)” value in test [6] amounted to 45%.

On to `C[n+]1ccc(-c2cc[n+](C)cc2)cc1` [paraquat, reference compound], for which the “effect on PME in the screen” value in test [1] is given as “inhibited PME”.

For `COc1cc(/C=C/C(=O)CC(=O)/C=C/c2ccc(O)c(OC)c2)ccc1O` [curcumin], the “effect on PME defect” value in test [3] is “significantly increased the number of paternal mitochondrial clusters”.

Take `CC(CC(=O)C[C@@H](C)[C@H]1CC(=O)[C@@]2(C)C3=C(C(=O)C[C@]12C)[C@@]1(C)CC[C@H](O)C(C)(C)[C@@H]1C[C@@H]3O)C(=O)O` (stereo partly shown) [ganoderic acid B]: the “enhancement of the PME defect” value in test [2] is recorded as “enhanced the PME defect”. The “effect on PME defect” value in test [3] was “significantly increased the number of paternal mitochondrial clusters”.

`O=C1O[C@H]([C@@H](O)CO)C(O)=C1O` [ascorbic acid, reference compound]: the “effect on PME in the screen” value in test [1] is “did not inhibit PME”.

As for `O=C(OC[C@H]1O[C@@H](OC(=O)c2cc(O)c(O)c(OC(=O)c3cc(O)c(O)c(O)c3)c2)[C@H](OC(=O)c2cc(O)c(O)c(OC(=O)c3cc(O)c(O)c(O)c3)c2)[C@@H](OC(=O)c2cc(O)c(O)c(OC(=O)c3cc(O)c(O)c(O)c3)c2)[C@@H]1OC(=O)c1cc(O)c(O)c(OC(=O)c2cc(O)c(O)c(O)c2)c1)c1cc(O)c(O)c(OC(=O)c2cc(O)c(O)c(O)c2)c1` [tannic acid, reference compound], the “effect on PME in the screen” value in test [1] is recorded as “did not inhibit PME”.

Take `O=c1cc(-c2ccccc2)oc2cc(O)c(O)c(O)c12` [baicalein]: the “enhancement of the PME defect” value in test [2] is recorded as “not”. Moreover, in test [3], the “effect on PME defect” value was “significantly increased the number of paternal mitochondrial clusters”.

`O=c1c(O)c(-c2ccc(O)c(O)c2)oc2cc(O)cc(O)c12` [quercetin]: the “effect on PME defect” value in test [3] is listed as “significantly increased the number of paternal mitochondrial clusters”.

Values taken from patent US20250346550A1, “METHODS OF MODULATING ENDONUCLEASE G USING RESVERATROL AND ITS DERIVATIVES” (THE REGENTS OF THE UNIVERSITY OF COLORADO A BODY CORPORATE, priority 2022, published 2025).
